Here are results for 3 molecules from patent US8388944B2, “Inactivating organisms using carbon dioxide at or near its supercritical pressure and temperature conditions” (Novasterilis Inc., priority 2003, dated 2013).

The test system of assay [1] is B. subtilis spore and vegetative forms. In words: Inactivation of B. subtilis spore and vegetative forms, CFU counted after serial dilution and culturing. Format: cell-based, Bacillus subtilis. Here is the method: The reactor vessel was heated to 50° C. and equilibrated with CO2 at atmospheric pressure. The stirring and agitation mechanisms were activated and the reactor vessel pressurized to 3000 psi for 40 minutes. The CO2 pressure was then allowed to drop to 1500 psi at a rate of 300 psi/minute. Agitation was carried out for 1 minute.
The loop was sealed and pressurized to 3000 psi.
The stirring was stopped and the basket was removed from the reactor vessel.
The reactor vessel was heated to 50° C. and equilibrated with CO2 at atmospheric pressure. […] The CO2 pressure was then allowed to drop to 1500 psi at a rate of 300 psi/minute.

In assay [2] the test system is B. stearothermophilus spores. In words: Inactivation of B. stearothermophilus spores, CFU counted after serial dilution and culturing. Format: cell-based. To be noted: for CFU/mL after treatment: start 2.3×10^6 CFU/mL. From the text: The effects of using an additive in accordance with the present invention was compared using the process described by U.S. Pat. No. 6,149,864 to Dillow et al. for inactivating B. stearothermophilus spores. […] In contrast, 6.4-log inactivation (i.e., 2.3×10^6 CFU/mL to undetectable) was achieved using the process of the present invention (i.e., 1100 psi to 3000 psi with random and directional agitation, and including TFA as the chemical additive). The chemical additive was placed on a cotton ball and inserted in the chamber prior to closure. No further chemical additive was used.
The apparatus generally depicted in FIG. 1 was employed. A sample of B. stearothermophilus spores (1 mL) of greater than 10^6 CFU/mL was placed in 16 mm diameter test tubes in a stainless steel basket. Trifluoroacetic acid (4 mL) was transferred by syringe onto the surface of a cotton ball placed in the basket and water (6 mL) was placed at bottom of vessel. The basket was then loaded into the 600 mL reactor vessel. The reactor vessel was heated to 50° C. and equilibrated with CO2 at atmospheric pressure. The stirring and agitation mechanisms were activated and the reactor vessel pressurized to […] for 40 minutes. The CO2 pressure was then allowed to drop to 1100 psi at a rate of 300 psi/minute. Agitation by means of vibration of the vessel was carried out for 1 minute.
The pressurization/stirring/agitation/depressurization process was repeated a total of three times. After the third cycle, a series of three flushing cycles to remove the additive was performed by pressurizing and partial depressurizing the reactor vessel using CO2. The stirring was stopped and the basket was removed from the reactor vessel. Any remaining CFU were counted after serial dilution and culturing of both treated and untreated controls.

The next assay has as its system Pseudomonas aeruginosa. In words: Inactivation of bacteria by supercritical carbon dioxide. To be noted: 40° C., 2973 psi to 1500 psi, six cycles over 4 hours. Format: cell-based. An excerpt:
(§1) Maintaining the natural presentation environment for a given antigen generally enhances the protective qualities of a given vaccine. Ghost vaccine preparations result in empty bacterial shells that are intact except for holes produced by the lysis gene product when viewed by scanning electron microscopy (SEM). In contrast, organisms inactivated by supercritical carbon dioxide have intact cell walls (i.e., no lysis holes) and are not empty (i.e., the cytosolic contents are retained). Staphylococcus aureus and Pseudomonas aeruginosa were inactivated by at least 6-log with supercritical carbon dioxide at 40° C. and 2973 psi to 1500 psi for a total of six cycles over 4 hours. Escherichia coli was inactivated by at least 6-log with supercritical carbon dioxide at 34° C. and 2973 psi to 1500 psi for a total of three cycles over 0.5 hours.

The subject of a further assay is Staphylococcus aureus. The description is as above. Format: cell-based. To be noted: 40° C., 2973 psi to 1500 psi, six cycles over 4 hours.
Text: as §1

The subject of the next assay is Escherichia coli. The assay is described as above. Format: cell-based. To be noted: 34° C., 2973 psi to 1500 psi, three cycles over 0.5 hours.
Text: as §1

Another assay deals with B. subtilis spore forms. To be noted: process disclosed in the Dillow '864 patent, other investigators [27]; cited from earlier work.
The test system of a further assay is Salmonella typhimurium. Put plainly: Inactivation of S. typhimurium, serial dilutions and colony counts. Format: cell-based. To be noted: Example 8: no chemical additive, water 1 vol. %, 35° C., 1500 psi constant for 15 minutes, greater than 10^9 CFU/mL. Here is the method: A sample of Salmonella typhimurium (5 mL), […], of greater than 10^9 CFU/mL was placed into 16 mm test tubes in a stainless steel basket. Water was added on a cotton ball to the vessel at 1% of the total volume (1 vol. %) of the vessel. No chemical additive was placed in the vessel. The reactor vessel was heated to 35° C. and equilibrated with CO2 at atmospheric pressure. The stirring and agitation mechanisms were activated and vessel pressurized to 1500 psi and held constant for 15 minutes. The vessel was then depressurized and the contents removed for analysis. Quantitative analysis of any remaining Salmonella typhimurium in treated sample vs. untreated control was enumerated though serial dilutions and colony counts.

Counter-ions that a name gives are not always drawn.

For the molecule `CC(=O)O` [Acetic acid, acetic acid], in assay [1] (Example 3B: as Example 3A, samples of less than 10^6 CFU/ml), the “kill of B. subtilis present” value is recorded as “total kill”. Further, the “log reduction in CFU extrapolated for greater than 10^6 CFU/ml” value in assay [1] (Example 3B: extrapolated from total kill of samples below 10^6 CFU/ml) is listed as 6 log. In assay [1] (Example 7: acetic acid 6 mL then 4 mL per cycle in CO2, 50° C., 3000 psi 40 minutes to 1500 psi, three cycles), the log reduction result was “at least 6 log”.

In assay [2] (TFA as chemical additive in supercritical CO2, 1100 psi to 3000 psi, random and directional agitation), `O=C(O)C(F)(F)F` [TFA, trifluoroacetic acid] displayed a log inactivation of 6.4 log. For the same molecule, the CFU/mL after treatment entry in assay [2] (TFA as chemical additive in supercritical CO2, 1100 psi to 3000 psi) is reported as “undetectable”.

With `O=C=O` [supercritical carbon dioxide, carbon dioxide], the log inactivation entry was “at least 6 log” in the assay with Pseudomonas aeruginosa; “at least 6 log” in the assay on Staphylococcus aureus; “at least 6 log” in the assay with Escherichia coli; 1.0 log in assay [2] (no chemical additive, Dillow '864 conditions, three cycles of 60° C. for two hours, 1500 psi to 3000 psi, random agitation). Moreover, in the assay on B. subtilis spore forms, the “log reduction in B. subtilis spore forms” value is on record as 3.5 log. Further, in assay [2] (no chemical additive, three cycles of 60° C. for two hours, 1500 psi to 3000 psi), the CFU/mL after treatment was 2.1×10^5 CFU/mL. In the assay on Salmonella typhimurium, this molecule displayed a log reduction of 9 log.
